Several values for one entry are separate records, joined by “and”; a condition that tells them apart may be missing. Equal values may be shown once.
Tests used:
[1] = target: eeAChE (electric eel acetylcholinesterase) (Electrophorus electricus, UniProt O42275); test: biochemical; conditions: for IC50: Ellman assay, means ± SD of three measurements; for inhibition at 20 µM: read-out: inhibition percentage eeAChE, at 20 μM
Protocol: (§1) The in vitro inhibitory activities of novel purine nucleosides 5-10, 12, 13 and 15, and 16 were evaluated against both heterologous (electric eel eeAChE, horse eqBChE) and human (recombinant) cholinesterases isoforms, by applying the Ellmann colorimetric assay, with slight modifications. […] The test compounds were assayed for their inhibitory activity toward eeAChE (electric eel AChE) and eqBChE (horse serum BChE), respectively, following Ellman’s method with modifications. […] AChE inhibitory activity was determined similarly by using a solution of AChE (0.9 U/mL in 0.1 M pH 8.0 phosphate buffer, PB) and acetylthiocholine iodide (ATC, 0.05 mM in 0.1 M pH 8.0 phosphate buffer, PB) as substrate. The inhibition data are reported as means of IC50’s determined at least in three independent measurements.

[2] = target: T1, eqBChE (horse serum butyrylcholinesterase) (Equus caballus, UniProt P81908); test: biochemical; conditions: for IC50: horse serum BChE, means ± SD of three measurements; for inhibition at 20 µM: read-out: inhibition percentage eqBChE
T1 construct: eqBChE (horse serum BChE); from tissue; host or cells: horse serum
Protocol: as §1

[3] = target: hBChE (recombinant human isoform) (Homo sapiens, UniProt P06276); test: biochemical; format: biochemical; conditions: for IC50: recombinant human isoform, means ± SD of three measurements
Protocol: (§2) The in vitro inhibitory activities of novel purine nucleosides 5-10, 12, 13 and 15, and 16 were evaluated against both heterologous (electric eel eeAChE, horse eqBChE) and human (recombinant) cholinesterases isoforms, by applying the Ellmann colorimetric assay, with slight modifications.
(§3) The test compounds were assayed for their inhibitory activity toward eeAChE (electric eel AChE) and eqBChE (horse serum BChE), respectively, following Ellman’s method with modifications. […] AChE inhibitory activity was determined similarly by using a solution of AChE (0.9 U/mL in 0.1 M pH 8.0 phosphate buffer, PB) and acetylthiocholine iodide (ATC, 0.05 mM in 0.1 M pH 8.0 phosphate buffer, PB) as substrate. The inhibition data are reported as means of IC50’s determined at least in three independent measurements.

[4] = target: hAChE (recombinant human isoform) (Homo sapiens, UniProt P22303); test: biochemical; format: biochemical; conditions: for IC50: recombinant human isoform, means ± SD of three measurements; for inhibition at 20 µM: read-out: inhibition percentage hAChE
Protocol: as §2, §3

[5] = UV-Visible chelating study, copper; conditions: ions Cu^2+, Zn^2+, Fe^2+, Al^3+ as chlorides, water/DMSO
Protocol: (§4) The chelating activity of all purine nucleoside probes was evaluated by the UV-Visible method in order to determine compounds’ absorption spectra in the absence and in the presence of Cu^2+ at concentrations ranging from 1 μM to 10 μM. […] The resulting wavelength shift from λ = 280 to λ = 325 nm indicates a conformational rearrangement induced by interaction with Cu^2+.
(§5) UV-Visible spectroscopy offers the advantage of high sensitivity towards small changes that affect the electronic properties of ligand receptors, so absorption spectra of all reported compounds have been evaluated by recording UV-visible properties in subsequent conditions: 1.5 mL 1 × 10^−4M of the probe are added to 1.5 mL 2 × 10^−5M of each ion chloride salt’s solution (Copper Chloride (CuCl2), Zinc Chloride (ZnCl2), Iron (II) Chloride (FeCl2) and Aluminum Chloride (AlCl3)). A mixture of distilled water/DMSO 95:5 has been selected as a solvent for compounds 5–10 and 12. For compounds 14–16, the selected solvent was a mixture of distilled water/DMSO 90:10 due to poor water solubility. Furthermore, a titration assay of each compound has been carried out by adding increasing concentration of selected ion (final ion concentration = 1 µM, 2 µM, 3 µM, 5 µM, and 10 µM).

[6] = UV-Visible chelating study, iron; conditions: UV-Visible absorption
Protocol: as §4, §5

[7] = UV-Visible chelating study, zinc; conditions: UV-Visible absorption
Protocol: as §4, §5

[8] = UV-Visible chelating study, aluminum; conditions: UV-Visible absorption
Protocol: as §4, §5

[9] = Water solubility (qualitative remark); format: physicochemical
[10] = system: serum BChE; conditions: literature value determined for serum BChE; read-out: IC50 hBChE; cited from earlier work
[11] = system: brain AChE; conditions: literature value determined for brain AChE; read-out: IC50 hAChE; cited from earlier work
[12] = at 5 μM (lower water solubility), 5 µM

T1 sequence (P81908 whole entry): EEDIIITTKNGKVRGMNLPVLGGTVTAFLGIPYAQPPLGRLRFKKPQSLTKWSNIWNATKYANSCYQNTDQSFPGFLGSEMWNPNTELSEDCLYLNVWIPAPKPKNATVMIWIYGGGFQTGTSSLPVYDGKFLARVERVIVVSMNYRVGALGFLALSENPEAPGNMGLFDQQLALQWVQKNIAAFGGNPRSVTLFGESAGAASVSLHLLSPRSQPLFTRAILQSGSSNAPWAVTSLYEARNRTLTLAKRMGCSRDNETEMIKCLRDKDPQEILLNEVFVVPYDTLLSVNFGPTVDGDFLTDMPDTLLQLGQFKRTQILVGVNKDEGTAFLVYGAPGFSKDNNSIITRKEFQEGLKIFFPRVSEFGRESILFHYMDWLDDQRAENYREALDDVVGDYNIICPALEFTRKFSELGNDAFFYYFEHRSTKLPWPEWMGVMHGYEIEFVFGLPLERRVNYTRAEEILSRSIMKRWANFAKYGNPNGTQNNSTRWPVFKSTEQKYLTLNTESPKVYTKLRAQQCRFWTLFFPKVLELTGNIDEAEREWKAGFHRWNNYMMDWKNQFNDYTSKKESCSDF
Chain of hAChE (recombinant human isoform) (P22303 32-614): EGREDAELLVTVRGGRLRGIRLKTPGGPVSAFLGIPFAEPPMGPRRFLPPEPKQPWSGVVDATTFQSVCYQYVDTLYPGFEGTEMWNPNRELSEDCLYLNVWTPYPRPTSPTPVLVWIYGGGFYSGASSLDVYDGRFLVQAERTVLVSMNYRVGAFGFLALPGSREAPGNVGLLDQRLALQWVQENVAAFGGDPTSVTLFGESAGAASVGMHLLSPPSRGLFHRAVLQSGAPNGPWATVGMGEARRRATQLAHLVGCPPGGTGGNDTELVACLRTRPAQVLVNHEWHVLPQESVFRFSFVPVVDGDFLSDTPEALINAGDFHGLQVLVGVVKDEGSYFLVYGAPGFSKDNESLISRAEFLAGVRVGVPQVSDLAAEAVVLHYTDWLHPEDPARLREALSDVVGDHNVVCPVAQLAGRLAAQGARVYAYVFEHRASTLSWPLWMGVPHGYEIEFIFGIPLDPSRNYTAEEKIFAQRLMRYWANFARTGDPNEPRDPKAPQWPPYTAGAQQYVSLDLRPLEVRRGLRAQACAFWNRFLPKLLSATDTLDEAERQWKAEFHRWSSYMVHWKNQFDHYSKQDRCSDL
Chain of hBChE (recombinant human isoform) (P06276 29-602): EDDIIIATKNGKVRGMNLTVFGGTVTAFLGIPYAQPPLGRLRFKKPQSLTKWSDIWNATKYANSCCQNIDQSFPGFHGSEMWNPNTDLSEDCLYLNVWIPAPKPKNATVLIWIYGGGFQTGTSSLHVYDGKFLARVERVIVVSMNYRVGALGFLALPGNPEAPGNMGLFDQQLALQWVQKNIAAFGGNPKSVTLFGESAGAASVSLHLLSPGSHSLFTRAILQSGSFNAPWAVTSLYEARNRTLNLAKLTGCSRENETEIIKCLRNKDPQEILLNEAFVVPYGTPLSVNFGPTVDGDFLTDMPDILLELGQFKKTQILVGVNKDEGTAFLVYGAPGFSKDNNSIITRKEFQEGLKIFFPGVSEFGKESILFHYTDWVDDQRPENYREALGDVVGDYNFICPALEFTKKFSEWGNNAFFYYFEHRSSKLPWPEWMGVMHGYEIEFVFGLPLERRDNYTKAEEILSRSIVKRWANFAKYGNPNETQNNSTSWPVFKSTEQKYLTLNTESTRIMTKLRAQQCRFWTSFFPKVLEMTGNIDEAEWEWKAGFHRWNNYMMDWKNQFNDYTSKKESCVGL
Chain of eeAChE (electric eel acetylcholinesterase) (O42275 24-633): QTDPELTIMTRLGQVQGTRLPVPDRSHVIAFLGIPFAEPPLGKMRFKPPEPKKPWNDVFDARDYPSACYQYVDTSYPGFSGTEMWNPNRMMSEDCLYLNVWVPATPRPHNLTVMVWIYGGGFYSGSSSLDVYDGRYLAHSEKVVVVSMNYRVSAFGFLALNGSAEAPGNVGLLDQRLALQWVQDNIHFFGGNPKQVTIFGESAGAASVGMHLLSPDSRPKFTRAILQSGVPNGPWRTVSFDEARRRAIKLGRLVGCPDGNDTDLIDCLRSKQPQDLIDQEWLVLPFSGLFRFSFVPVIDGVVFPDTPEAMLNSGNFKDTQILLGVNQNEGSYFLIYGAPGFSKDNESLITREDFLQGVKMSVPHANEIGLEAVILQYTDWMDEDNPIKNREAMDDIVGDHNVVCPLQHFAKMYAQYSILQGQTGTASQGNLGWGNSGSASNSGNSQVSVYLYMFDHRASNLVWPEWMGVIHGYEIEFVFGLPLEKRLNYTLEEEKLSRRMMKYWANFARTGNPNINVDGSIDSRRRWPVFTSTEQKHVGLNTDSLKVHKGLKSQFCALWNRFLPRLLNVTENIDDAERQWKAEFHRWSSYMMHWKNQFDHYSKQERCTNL

Clc1ncnc2c1ncn2[C@H]1O[C@H](COCc2ccccc2)[C@@H](OCc2ccccc2)[C@H](OCc2ccccc2)[C@@H]1OCc1ccccc1 [Compound 1, 6-chloro-9-(2,3,4,6-tetra-O-benzyl-α-D-mannopyranosyl)purine, reference compound]
IC50 [1]: 2.4 ± 0.3 µM | IC50 [2]: 2.8 ± 0.3 µM

CC(=O)Nc1nc(Cl)c2c(ncn2[C@H]2O[C@H](COCc3ccccc3)[C@@H](OCc3ccccc3)[C@H](OCc3ccccc3)[C@@H]2OCc2ccccc2)n1 [Compound 2, reference compound]
IC50 [1]: 18.1 ± 4.8 µM | IC50 [2]: 0.05 ± 0.01 µM

O=C(Nc1ncnc2c1ncn2[C@H]1O[C@H](COCc2ccccc2)[C@@H](OCc2ccccc2)[C@H](OCc2ccccc2)[C@@H]1OCc1ccccc1)c1ccccc1 [Compound 5, 6-benzamido-9-(2,3,4,6-tetra-O-benzyl-α-D-mannopyranosyl)purine]
IC50 [1]: > 20 µM | inhibition at 20 µM [1]: 25% | inhibition at 20 µM [2]: 11% | IC50 [2]: > 20 µM

O=C(Nc1ncnc2c1ncn2[C@@H]1O[C@H](COCc2ccccc2)[C@@H](OCc2ccccc2)[C@H](OCc2ccccc2)[C@@H]1OCc1ccccc1)c1ccccc1 [Compound 6, 6-benzamido-9-(2,3,4,6-tetra-O-benzyl-β-D-mannopyranosyl)purine]
IC50 [1]: 10.6 ± 1.1 µM | IC50 [2]: 4.3 µM and 4.29 µM | IC50 [3]: 4.6 µM and 4.58 µM | IC50 [4]: 17 ± 0.75 µM

O=C(Nc1ncnc2ncn([C@H]3O[C@H](COCc4ccccc4)[C@@H](OCc4ccccc4)[C@H](OCc4ccccc4)[C@@H]3OCc3ccccc3)c12)c1ccccc1 [Compound 7, 6-benzamido-7-(2,3,4,6-tetra-O-benzyl-α-D-mannopyranosyl)purine]
IC50 [1]: > 20 µM | eqBChE inhibition, result in words [2]: selective | IC50 [2]: 10 ± 1.1 µM

O=C(Nc1ncnc2ncn([C@@H]3O[C@H](COCc4ccccc4)[C@@H](OCc4ccccc4)[C@H](OCc4ccccc4)[C@@H]3OCc3ccccc3)c12)c1ccccc1 [Compound 8, 6-benzamido-7-(2,3,4,6-tetra-O-benzyl-β-D-mannopyranosyl)purine]
IC50 [1]: 2.6 µM and 2.61 µM | IC50 [2]: 4.4 ± 1.3 µM | IC50 [3]: 4.6 µM and 4.55 µM | IC50 [4]: 4.8 µM and 4.81 µM

C[C@H]1O[C@H](n2cnc3c(NC(=O)c4ccccc4)ncnc32)[C@@H](OCc2ccccc2)[C@@H](OCc2ccccc2)[C@@H]1OCc1ccccc1 [Compound 9, 6-benzamido-9-(6-deoxy-2,3,4-tri-O-benzyl-α-D-mannopyranosyl)purine]
eeAChE inhibition, result in words [1]: selective inhibitor | IC50 [1]: 4.7 µM and 4.69 µM | inhibition at 20 µM [2]: 28% | IC50 [2]: > 20 µM | hBChE inhibition, result in words [3]: selective inhibitor | IC50 [3]: 15.4 ± 1.1 µM | inhibition at 20 µM [4]: 25% | IC50 [4]: > 20 µM

C[C@H]1O[C@@H](n2cnc3c(NC(=O)c4ccccc4)ncnc32)[C@@H](OCc2ccccc2)[C@@H](OCc2ccccc2)[C@@H]1OCc1ccccc1 [Compound 10, 6-benzamido-9-(6-deoxy-2,3,4-tri-O-benzyl-β-D-mannopyranosyl)purine]
IC50 [1]: 15 ± 2.1 µM | eqBChE inhibition, result in words [2]: moderate inhibition | IC50 [2]: 11.7 ± 1.2 µM | IC50 [3]: 8.7 ± 1.35 µM | IC50 [4]: 17.8 ± 2.2 µM

CC(=O)O[C@@H]1[C@@H](OC(C)=O)[C@H](C)O[C@@H](n2cnc3c(NC(=O)c4ccccc4)ncnc32)[C@@H]1OC(C)=O [Compound 12, 6-benzamido-9-(6-deoxy-2,3,4-tri-O-acetyl-α-L-mannopyranosyl)purine]
eeAChE inhibition, result in words [1]: not active | IC50 [1]: > 20 µM | inhibition at 20 µM [1]: 8% | eqBChE inhibition, result in words [2]: not active | inhibition at 20 µM [2]: 5% | IC50 [2]: > 20 µM | chelating activity / metal selectivity, result in words [5]: selective Cu^2+ chelating agents | hBChE inhibition, result in words [3]: not active | hAChE inhibition, result in words [4]: not active

C[C@@H]1O[C@@H](n2cnc3c(N(Cc4ccccc4)C(=O)c4ccccc4)ncnc32)[C@H](OCc2ccccc2)[C@H](OCc2ccccc2)[C@H]1OCc1ccccc1 [Compound 13, 6-benzamido-N-benzyl-9-(6-deoxy-2,3,4-tri-O-benzyl-α-L-mannopyranosyl)purine]
interaction with iron ion, result in words [6]: did not show chelating activity | IC50 [1]: > 20 µM | inhibition at 20 µM [1]: 6% | eqBChE inhibition, result in words [2]: selective | IC50 [2]: 5.1 µM and 5.12 µM | chelating activity / metal selectivity, result in words [5]: did not show chelating activity | interaction with zinc ion, result in words [7]: did not show chelating activity | interaction with aluminum ion, result in words [8]: did not show chelating activity | hBChE inhibition, result in words [3]: no activity | inhibition at 20 µM ([3]; at 20 μM, read-out: inhibition percentage hBChE): 25% | IC50 [3]: > 20 µM | hAChE inhibition, result in words [4]: no activity | inhibition at 20 µM [4]: 8% | IC50 [4]: > 20 µM

C[C@@H]1O[C@@H](n2cnc3c(NC(=O)c4ccccc4)ncnc32)[C@H](OCc2ccccc2)[C@H](OCc2ccccc2)[C@H]1OCc1ccccc1 [Compound 15, 6-benzamido-9-(6-deoxy-2,3,4-tri-O-benzyl-α-L-mannopyranosyl)purine]
water solubility, in words [9]: dramatic reduction of aqueous solubility | interaction with iron ion, result in words [6]: no relevant interaction | IC50 [1]: > 5 µM | inhibition at 5 µM ([1]; read-out: inhibition percentage eeAChE, at 5 μM (lower water solubility)): ≤ 50% | IC50 [2]: > 5 µM | chelating activity / metal selectivity, result in words [5]: selective copper chelator | interaction with zinc ion, result in words [7]: no relevant interaction | interaction with aluminum ion, result in words [8]: no relevant interaction | IC50 [3]: > 5 µM | inhibition percentage hAChE [4, 12]: 28 ± 3% | IC50 [4]: > 5 µM

C[C@@H]1O[C@H](n2cnc3c(NC(=O)c4ccccc4)ncnc32)[C@H](OCc2ccccc2)[C@H](OCc2ccccc2)[C@H]1OCc1ccccc1 [Compound 16, 6-benzamido-9-(6-deoxy-2,3,4-tri-O-benzyl-β-L-mannopyranosyl)purine]
water solubility, in words [9]: dramatic reduction of aqueous solubility | IC50 [1]: > 5 µM | IC50 [2]: > 5 µM | chelating activity / metal selectivity, result in words [5]: non-selective chelator | inhibition percentage hBChE [3, 12]: 30 ± 7% | inhibition at 5 µM ([3]; at 5 μM (lower water solubility), read-out: inhibition percentage hBChE): < 50% | IC50 [3]: > 5 µM | IC50 [4]: > 5 µM

COc1ccc2c3c1O[C@H]1C[C@@H](O)C=C[C@@]31CCN(C)C2 [Galantamine]
IC50 [10]: 59.2 ± 1.7 µM | IC50 [11]: 5 ± 0.071 µM

From paper PMC9864808, “Exploring Mannosylpurines as Copper Chelators and Cholinesterase Inhibitors with Potential for Alzheimer’s Disease” (Pharmaceuticals, 2022)
